Experimental findings from US20250243176A1, “(S)-1-(1-ACRYLOYLPIPERIDIN-3-YL)-2-FLUORO-5,6,7,8,9,10-HEXAHYDROCYCLO HEPTA[B]INDOLE-4-CARBOXAMIDE, AND RELATED CRYSTALLINE FORMS, COMPOSITIONS, AND METHODS THEREOF” (GB005, Inc., priority 2021, published 2025) are described below.

Holding throughout (type): physicochemical
The nature of series [1]: Solubility testing in bio-relevant media (Form III). The settings on record: 37° C.; for Solubility / solubility at 1 h: 1 h; for Solubility / solubility at 4 h: 4 h; for Solubility / solubility at 24 h: 24 h; for solubility at 1 h / solubility at 4 h / solubility at 24 h: thermodynamic from solid. As to the method:
FaSSIF Buffer Solution: 6 mL 0.2 M NaOH, 388.7 mg of NaH2PO4, and 608.2 mg of NaCl were dissolved and diluted to 100 mL with water. The pH was 6.51. FaSSIF Media: 34.56 mg of SIF powder was dissolved in 15 mL of FaSSIF buffer solution. The solution was stirred and equilibrated at ambient temperature with light protection for 2 hours. SIF powder was purchased from Biorelevant.com.
FeSSIF Buffer Solution: 408.4 mg of NaOH, 868.5 mg of acetic acid, and 1.1802 g of NaCl were dissolved and diluted to 100 mL with water. The pH of the solution was 4.98. FeSSIF Media: 168.42 mg of SIF powder was dissolved in 15 mL of FeSSIF buffer solution. The solution was protected from light.
FaSSGF Buffer Solution: 222 mg of NaCl were dissolved with water, then added 1N HCl adjust the pH to 1.6. […] The solution was stirred and equilibrated at ambient temperature with light protection for 2 hours.
FaSSIF-V2 Buffer Solution: 154.4 mg NaOH, 246.7 mg of maleic acid and 445.6 mg of NaCl were dissolved and diluted to 100 mL with water. The pH was 6.51. FaSSIF-V2 Media: 28.64 mg of FaSSIF-V2 powder (purchased from Biorelevant.com) was dissolved in 8 mL of FaSSIF-V2 buffer solution. The solution was stirred and equilibrated at ambient temperature with light protection for 2 hours.
FeSSIF-V2 Buffer Solution: […] of NaOH, 710 mg of maleic acid, and 814.4 mg of NaCl were dissolved and diluted to 100 mL with water. The pH of the solution was 5.8. FeSSIF-V2 Media: 156.16 mg of FeSSIF-V2 powder was dissolved in 8 mL of FeSSIF-V2 buffer solution. The solution was protected from light.
Samples were prepared in duplicate for each medium. The suspensions were shaken at 37° C. for up to 24 hours.

Series [2] in a line: Dynamic vapor sorption (DVS). As to the method:
Moisture sorption/desorption data was collected on a Vsorp Dynamic Moisture Sorption Analyzer (ProUmid GmbH & Co. KG, Germany). The sample was placed into a tared sample chamber and automatically weighed. • Sample temperature 25° C. • Cycle: Full cycle • Adsorption 0, 10, 20, 30, 40, 50, 60, 70, 80, 90 • Desorption 80, 70, 60, 50, 40, 30, 20, 10, 0

Series [3] can be described thus: Solid-state stability of Form III. As to the method:
The solid-state stability of Compound 1, Form III was examined in duplicate (sample 1 and sample 2) for 7 days under the conditions below and the resultant solids analyzed by XRPD: • 40° C./75% relative humidity (open); and • 60° C. (capped).
The solid-state stability of Compound 1, Form III was also examined for 3 months under the conditions below: • 40° C./75% relative humidity; and • 25° C./60% relative humidity

Series [4] can be described thus: Competition slurry / inter-conversion study of Form I and Form III. The settings on record: competition slurry of Form I and Form III in water and heptane; RT to 80° C. As to the method: Equal amounts of Form I and Form III were mixed in water and heptane to form slurries and stirred at RT (˜25° C.) or 80° C.
Series [5] in a line: Grinding (mechanical treatment) of Form III. The procedure:
Polymorph screening of Compound 1 was conducted using various crystallization methods, including slurry, cooling and evaporative crystallization, anti-solvent precipitation, thermal and mechanical treatment.

Series [6] in a line: Approximate solubility, solvent addition method, visual assessment. As to the method:
The approximate solubility of the initial solid was determined using a solvent addition method via visual assessment of samples.
Values are rounded to nearest whole number and reported as “<” if dissolution was not observed, and as “>” if dissolution occurred after addition of first aliquot.

In brackets after ≈: the same amount, converted by molar mass. Entries after “also recorded” stand apart in the source; their conditions may differ.

By Solubility is commonly meant the dissolved amount per volume that the medium holds. A word on the solubility: it is the concentration that dissolves in the medium under given conditions. A higher solubility goes with much dissolved substance.

Regarding `C=CC(=O)N1CCC[C@@H](c2c(F)cc(C(N)=O)c3[nH]c4c(c23)CCCCC4)C1` [Form III, (S)-1-(1-acryloylpiperidin-3-yl)-2-fluoro-5,6,7,8,9,10-hexahydrocyclohepta[b]indole-4-carboxamide], the Solubility result in series [1] (FaSSGF, pH 1.6, pH at 24 h 1.7) is “<LOQ”; in series [1] (pH 5.8 Buffer, pH at 24 h 5.8), “<LOQ”; in series [1] (pH 6.5 Buffer, pH at 24 h 6.6), “<LOQ”. Further, the solubility at 1 h in series [1] (FaSSIF, pH 6.5) was found to be 6 µg/mL (≈ 15.6 µM); in series [1] (FaSSIF-V2, pH 6.5) it was 4 µg/mL (≈ 10.4 µM); in series [1] (FeSSIF, pH 5.0), 73 µg/mL (≈ 190 µM); in series [1] (FeSSIF-V2, pH 5.8), 120 µg/mL (≈ 313 µM). Besides, the solubility at 4 h is 5 µg/mL (≈ 13 µM) in series [1] (FaSSIF, pH 6.5); 4 µg/mL (≈ 10.4 µM) in series [1] (FaSSIF-V2, pH 6.5); 75 µg/mL (≈ 196 µM) in series [1] (FeSSIF, pH 5.0); 200 µg/mL (≈ 522 µM) in series [1] (FeSSIF-V2, pH 5.8). The solubility at 24 h in series [1] (FaSSIF, pH 6.5, pH at 24 h 6.5) worked out at 7 µg/mL (≈ 18.3 µM); in series [1] (FaSSIF-V2, pH 6.5, pH at 24 h 6.6), 4 µg/mL (≈ 10.4 µM); in series [1] (FeSSIF, pH 5.0, pH at 24 h 5.0), 90 µg/mL (≈ 235 µM); in series [1] (FeSSIF-V2, pH 5.8, pH at 24 h 5.9), 180 µg/mL (≈ 469 µM). Also, the hygroscopicity entry in series [2] (DVS) is on record as “non-hygroscopic”. For the same compound, in series [2] (XRPD before and after DVS), the “crystal Form after DVS testing” value was “remained unchanged”. In series [2] (up to 90% RH, 25° C.), the “weight gain (DVS)” value is recorded as less than 0.5%. The solid-state stability entry in series [3] (3 months, 40° C./75% relative humidity and 25° C./60% relative humidity) is “stable”; in series [3] (7 days, 40° C./75% relative humidity (open) and 60° C. (capped)), “chemically and physically stable”. In addition, the “relative stability of crystal forms” value in series [4] is on record as “most stable Form; also recorded: more stable than Form I”. In addition, the “crystal form after grinding” value in series [5] is listed as “remained unchanged”. The crystallinity after grinding result in series [5] is listed as “decreased slightly”.
With `C=CC(=O)N1CCC[C@@H](c2c(F)cc(C(N)=O)c3[nH]c4c(c23)CCCCC4)C1` [starting material, (S)-1-(1-acryloylpiperidin-3-yl)-2-fluoro-5,6,7,8,9,10-hexahydrocyclohepta[b]indole-4-carboxamide], the Solubility in series [6] (1,4-dioxane) is approximately 20000 µg/mL (≈ 52200 µM); in series [6] (1,4-dioxane, organic solvent or mixture, thermodynamic from solid, 1,4-dioxane, read-out: Solubility), more than 20000 µg/mL; in series [6] (2-butanone (MEK), organic solvent or mixture, thermodynamic from solid, 2-Butanone (MEK), read-out: Solubility), approximately 8300 µg/mL (≈ 21600 µM); in series [6] (2-propanol (IPA), organic solvent or mixture, thermodynamic from solid, 2-Propanol (IPA), read-out: Solubility), approximately 4200 µg/mL (≈ 11000 µM); in series [6] (Dimethyl sulfoxide (DMSO)), more than 250000 µg/mL; in series [6] (Tetrahydrofuran (THF)), approximately 25000 µg/mL (≈ 65200 µM). The Solubility in series [6] (Water) is less than 600 µg/mL; in series [6] (acetone, organic solvent or mixture, thermodynamic from solid, Acetone, read-out: Solubility) it was approximately 7100 µg/mL (≈ 18500 µM); in series [6] (acetonitrile, organic solvent or mixture, thermodynamic from solid, Acetonitrile, read-out: Solubility), approximately 1700 µg/mL (≈ 4430 µM); in series [6] (dimethyl sulfoxide (DMSO), organic solvent or mixture, thermodynamic from solid, Dimethyl sulfoxide (DMSO), read-out: Solubility) it was more than 250000 µg/mL; in series [6] (ethanol, organic solvent or mixture, thermodynamic from solid, Ethanol, read-out: Solubility), approximately 5000 µg/mL (≈ 13000 µM); in series [6] (ethyl acetate, organic solvent or mixture, thermodynamic from solid, Ethyl acetate, read-out: Solubility) it was approximately 2000 µg/mL (≈ 5220 µM). Further, the Solubility was approximately 1500 µg/mL (≈ 3910 µM) in series [6] (isopropyl acetate, organic solvent or mixture, thermodynamic from solid, Isopropyl acetate, read-out: Solubility); approximately 7100 µg/mL (≈ 18500 µM) in series [6] (methanol, organic solvent or mixture, thermodynamic from solid, Methanol, read-out: Solubility); less than 600 µg/mL in series [6] (n-Heptane); approximately 2300 µg/mL (≈ 6000 µM) in series [6] (n-butanol (NBA), organic solvent or mixture, thermodynamic from solid, n-Butanol (NBA), read-out: Solubility); less than 600 µg/mL in series [6] (n-heptane, organic solvent or mixture, thermodynamic from solid, n-Heptane, read-out: Solubility); more than 20000 µg/mL in series [6] (tetrahydrofuran (THF), organic solvent or mixture, thermodynamic from solid, Tetrahydrofuran (THF), read-out: Solubility). The Solubility in series [6] (toluene, organic solvent or mixture, thermodynamic from solid, Toluene, read-out: Solubility) is approximately 1300 µg/mL (≈ 3390 µM); in series [6] (water, thermodynamic from solid, Water, read-out: Solubility), less than 600 µg/mL.
